Measurements reported in PubChem BioAssay (NCI).
“And” between values parts separate entries of the source, which are not always exact repeats. Equal values may be shown once.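 Method: 48-hour compound exposure of cells in 96-well plates, five concentrations, linear interpolation of endpoints. Here, GI50 denotes the concentration required for 50% inhibition of growth. Definition used: TGI = concentration required for complete inhibition of growth.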

What was measured:
Assay in all cases: growth of human tumour cells (NCI), 48 h
[1] = test system: CAKI-1 renal
[2] = test system: RPMI-8226 leukemia
[3] = test system: U251 CNS
[4] = test system: SN12C renal
[5] = test system: M14 melanoma
[6] = test system: SK-MEL-28 melanoma
[7] = test system: SW-620 colon
[8] = test system: SNB-19 CNS
[9] = test system: NCI-H23 lung
[10] = test system: SF-268 CNS

Row | SMILES | GI50 [1] [µM] | TGI [1] | GI50 [2] | TGI [2] | GI50 [3] | TGI [3] | GI50 [4] | TGI [4] | GI50 [5] | TGI [5] | GI50 [6] | TGI [6] | GI50 [7] | TGI [7] | GI50 [8] | TGI [8] | GI50 [9] | TGI [9] | GI50 [10] | TGI [10]
1 | CC(=O)OCC1OC(n2ccc(=O)[nH]c2=O)C(OC(C)=O)C1OC(C)=O (centres undefined) | > 100 | > 100 µM | > 100 µM | > 100 µM | > 100 µM | > 100 µM | > 100 µM | > 100 µM | > 100 µM | > 100 µM | > 100 µM | > 100 µM | > 100 µM | > 100 µM | > 100 µM | > 100 µM | > 100 µM | > 100 µM | > 100 µM | > 100 µM
2 | Clc1nc(Cl)c2c(ncn2C/C=C\Cn2cnc3c(Cl)nc(Cl)nc32)n1 | 1.63 | 3.83 µM | 1.58 µM | 3.8 µM | 1.85 µM | 3.91 µM | 1.8 µM | 6.14 µM | 2.79 µM | 6.92 µM | 1.66 µM | 3.02 µM | 0.776 µM | 2.12 µM | 1.66 µM | 3.16 µM | 1.72 µM | 3.93 µM | 1.74 µM | 5.49 µM
3 | CC(C)NC(=O)OCCS(=O)c1c(Cl)c(Cl)nn1C (centres undefined) |  | > 100 µM |  | > 100 µM |  | > 100 µM |  | > 100 µM |  | 39.4 µM |  | > 100 µM |  | > 100 µM |  | > 100 µM |  | > 100 µM |  | > 100 µM
4 | CCCCCCCCCCCCCC(=O)CBr |  | 3.13 µM |  | 4.24 µM |  | 28.8 µM |  | 43.3 µM |  | 26.6 µM |  | 30.7 µM |  | 30.2 µM |  | 33.7 µM |  | 23 µM |  | 20 µM
5 | COc1ccc2oc3cccc(NCCN(C)C)c3c(=O)c2c1 |  | 18.2 µM |  | 33 µM |  | 25.3 µM |  | 23.3 µM |  | 29.4 µM |  | 32.9 µM |  | 15.6 µM |  | 28.9 µM |  | 32.7 µM |  | 28.3 µM
6 | Oc1ccc(CCCCCCc2ccc(O)cc2)cc1 | 1.75 | 7.58 µM | 12.1 µM | > 69 µM | 5.61 µM | 19.8 µM | 9.22 µM | 24.3 µM | 4.7 µM | 17.5 µM | 17 µM | 31.5 µM | 7.29 µM | 20.5 µM | 12.6 µM | 25.5 µM | 7.5 µM | 21.5 µM | 3.89 µM | 17.5 µM
7 | Nc1cc(N)c(N)cc1N | 2.55 | 7.17 µM | 3.48 µM | 17.5 µM | 1.82 µM | 3.75 µM | 1.6 µM | 3.08 µM | 1.87 µM | 3.37 µM | 2.03 µM | 3.88 µM | 3.09 µM | 12.1 µM | 3.42 µM | 14.3 µM | 1.67 µM | 4.1 µM | 3.06 µM | 12.2 µM
8 | C=C(C)C(=O)O[C@H]1[C@H]2[C@H](OC(=O)[C@H]2C)[C@H](O)[C@@H](C)[C@@H]2C=CC(=O)[C@]21C |  | 5.66 µM |  | 9.73 µM |  | 12.1 µM |  | 4.96 µM |  | 38.5 µM |  | 5.85 µM |  | 10.7 µM |  | 18.6 µM |  | 15 µM |  | 12.6 µM
9 | N#CC(C(=O)C(=O)NCCCNC(=O)C(=O)C(C#N)c1ccccc1)c1ccccc1 (centres undefined) |  | > 100 µM |  | > 100 µM |  | > 100 µM |  | > 100 µM |  | > 100 µM |  | > 100 µM |  | > 100 µM |  | > 100 µM |  | > 100 µM |  | > 100 µM
10 | Clc1nc(Cl)c2ncn(Cc3ccc(COc4cccc(OCc5ccc(Cn6cnc7c(Cl)nc(Cl)nc76)cc5)c4)cc3)c2n1 | > 100 | > 100 µM | 9.5 µM | > 100 µM | 19.8 µM | > 100 µM | 92.4 µM | > 100 µM | 21.9 µM | 85.9 µM | 52.8 µM | > 100 µM | > 100 µM | > 100 µM | > 100 µM | > 100 µM | 71.4 µM | > 100 µM | > 100 µM | > 100 µM
11 | CC12CCC(=O)C=C1CCC1C2C(O)CC2(C)C(c3csc(N)n3)CCC12 (centres undefined) |  | > 100 µM |  | > 100 µM |  | > 100 µM |  | > 100 µM |  | > 100 µM |  | > 100 µM |  | > 100 µM |  | > 100 µM |  | > 100 µM |  | > 100 µM
12 | CCCCn1cnc2c(SC)ncnc21 |  | > 100 µM |  | > 100 µM |  | > 100 µM |  | > 100 µM |  | > 100 µM |  | > 100 µM |  | > 100 µM |  | > 100 µM |  | > 100 µM |  | > 100 µM
13 | CC(CNC(Cc1ccccc1)c1ccccc1)NC(Cc1ccccc1)c1ccccc1 (centres undefined) | 2.16 | 7.45 µM | 2.23 µM | 4.88 µM | 2.59 µM | 7.37 µM | 2.22 µM | 6.38 µM | 1.79 µM | 3.6 µM | 2.84 µM | 7.81 µM | 2.75 µM | 8.53 µM | 3.19 µM | 13.5 µM | 1.94 µM | 4.46 µM | 3.6 µM | 14.3 µM
14 | C[C@H]1[C@H](C)CC[C@]2(C(=O)O)CC[C@]3(C)C(=CC[C@@H]4[C@@]5(C)C/C(=C/c6cccnc6)[C@H](O)C(C)(C)[C@@H]5CC[C@]43C)[C@H]12 | 17.8 | > 100 µM | 6.03 µM | 41.5 µM | 10.9 µM | 27.8 µM | 18.1 µM | 97.3 µM | 17.7 µM | 49 µM | 13.7 µM | 34.6 µM | 20.9 µM | > 100 µM | 20.5 µM | > 100 µM | 17.4 µM | > 100 µM | 24.3 µM | > 100 µM
15 | CC(=O)O[C@@H]1CC2C(C)(C)CCCC2(C)C2=C1C(=O)C(C(C)C)=CC2=O (some centres undefined) | 1.03 | 2.63 µM | 0.948 µM | 93.4 µM | 2.35 µM | > 100 µM | 1.28 µM | 4.89 µM | 0.46 µM | 2.34 µM | 0.691 µM | 3.43 µM | 1.19 µM | 3.28 µM | 0.87 µM | > 100 µM | 1.87 µM | 7.86 µM | 1.39 µM | 38.1 µM
16 | CCCCCCCCCCCCCCCC(=O)OCC1OC(n2c(O)c(N=NC(N)=S)c3ccc([N+](=O)[O-])cc32)C(OC(C)=O)C1OC(C)=O (centres undefined) |  | > 100 µM |  | > 100 µM |  | > 100 µM |  | > 100 µM |  | > 100 µM |  | > 100 µM |  | > 100 µM |  | > 100 µM |  | > 100 µM |  | > 100 µM
17 | CC(=O)c1cc([N+](=O)[O-])ccc1OCC(=O)O |  | > 100 µM |  | > 100 µM |  | > 100 µM |  | > 100 µM |  | > 100 µM |  | > 100 µM |  | > 100 µM |  | > 100 µM |  | > 100 µM |  | > 100 µM
18 | O=C1C(Cl)=C(Nc2cccc(O)c2)C(=O)N1c1cc(Cl)c(Cl)cc1Cl | 19.2 | 48.1 µM | 14.4 µM | 45.8 µM | 13.7 µM | 27.3 µM | 15.6 µM | 29.4 µM | 20.8 µM | 40.9 µM | 18.5 µM | 36.3 µM | 15.2 µM | 28.9 µM | 20.4 µM | 45.5 µM | 22.3 µM | 48.3 µM | 19.5 µM | 42.5 µM
19 | O=C(CN1CCN(c2ccccc2)CC1)N1CCc2c([nH]c3ccccc23)C1c1cccnc1 (centres undefined) |  | > 72.6 µM |  | > 100 µM |  | 42.2 µM |  | > 100 µM |  | > 100 µM |  | > 100 µM |  | > 100 µM |  | > 100 µM |  | > 85.3 µM |  | > 100 µM
20 | CC(=O)[O-].CC(=O)[O-].[NH2-].[Pt+2].c1ccc2cnccc2c1 | 55.1 | > 100 µM | 27.7 µM | > 100 µM | 6.26 µM | 20.3 µM | 28.6 µM | > 100 µM | 59.1 µM | > 100 µM | 52.6 µM | > 100 µM | 16.2 µM | 38.3 µM | > 100 µM | > 100 µM | 47.7 µM | > 100 µM | 18.8 µM | > 100 µM
21 | OCc1ccc(-c2nn(Cc3ccccc3)c3ccccc23)o1 |  | > 63.5 µM and 34 µM | 14.3 µM and 3.15 µM | 43.8 µM and 15.3 µM | 8.07 µM and 12.4 µM | 28.5 µM and > 47.6 µM | 15.9 µM and 15.1 µM | 35.5 µM and 33.7 µM | 21.1 µM and 29.2 µM | 45.6 µM and > 57.8 µM | 16.9 µM and 15.7 µM | 36.5 µM and 47.5 µM | 13.3 µM and 12.3 µM | 51.9 µM and 32.8 µM | 21.5 µM and 13.7 µM | 96.7 µM and > 52 µM | 19.2 µM and 20.9 µM | 58.8 µM and 50.8 µM | 18.6 µM and 19 µM | 65.8 µM and 51.1 µM
22 | COc1nc2nccc-2c2occn12 |  | > 100 µM |  | > 100 µM |  | > 100 µM |  | > 100 µM |  | > 100 µM |  | > 100 µM |  | > 100 µM |  | > 100 µM |  | > 100 µM |  | > 100 µM
23 | Cc1ccc(NC(=O)/C(=N\Nc2ccc([N+](=O)[O-])cc2[N+](=O)[O-])C2C(=O)NC(=O)NC2=O)cc1 |  | > 100 µM |  | > 100 µM |  | > 100 µM |  | > 100 µM |  | > 100 µM |  | > 100 µM |  | > 100 µM |  | > 100 µM |  | > 100 µM |  | > 100 µM
